The values that follow are results of earlier work, collected in patent US20020194154A1, “Systems, methods and computer program products for integrating biological/chemical databases using aliases” (priority 2001, published 2002).

Each structure is given as a SMILES string.

For this data set the following is noted: side effect; text mining of HSDB.

On to `CC(C)(C)NCC(O)c1cc(Cl)c(N)c(Cl)c1` (centres unmarked) [clenbuterol], for which the cardiac arrhythmia result is given as “can in some cases cause cardiac arrhythmia” and the heart rate entry was “increases heart rate”.
